# From US20050143291A1, “Methods and compositions for modulating apoptosis” (priority 2003, published 2005)
# B1: procaspase-3 (endogenous, CHO and C.1 cells) (enzyme)
# chain: MENTENSVDSKSIKNLEPKIIHGSESMDSGISLDNSYKMDYPEMGLCIIVNNKNFHKSTGMTSRSGTDVDAANLRETFRNLKYGVRNKNDLTREGIVELMRDVSKEDHSKRSSFVCVLLSHGEEGIIFGTNGPVDLKKITNFFRGDRCRSLTGKPKLFIIQACRGTELDCGIETDSGVGDDMACHKIPVEADFLYAYSTAPGYYSWRNSKDGSWFIQSLCAMLKQYADKLEFMHILTRVNRKVATEFESFSFDATFHAKKQIPCIVSMLTKELYFYH
# notes: Zymogen form, in whole cell extracts
# Key:
# T24/83 cells = assay: Cell cycle analysis (FACS), T24/83 cells; assay type: cell-based, human; details: T24/83 cells treated with UPR inducer
# Experimental: (§1) Cell Cycle Analysis—Following seeding, exponentially growing cells were trypsinized at different days and fixed in 70% ethanol. The fixed cells were treated with PBS containing 0.1% (v/v) Triton X-100, 0.2 mg/ml DNase-free RNase, and 20 μg/ml propidium iodide (PI) for 30 min at room temperature. The cell cycle distributions were analyzed by fluorescence-activated cell sorting (FACS) analysis (FACstar; BD Biosciences). The cell cycle distribution measurements were repeated three to four times.
# (§2) In both the vector-transfected and GRP78 overexpressing cells, the percentage of G1, S, and G2 cells is similar.
# CHO cells = assay: Cell cycle analysis (FACS), CHO cells; assay type: cell-based, Chinese hamster; details: CHO cells treated with UPR inducer, versus exponentially growing cells
# Experimental: as §1, §2
# Control cells = assay: % Survival (Colony Assay), control cells; assay type: cell-based
# Experimental: (§3) Experiments were also performed to determine the anti-apoptotic effect conferred by overexpression of GRP78. This task was completed.
# (§4) Clonogenic Survival Assays—Four thousand cells were seeded into 10-cm-diameter dishes. […] After drug treatment, the cells were grown in fresh medium for 10 to 14 days. The colonies were washed with ice-cold PBS, fixed with methanol, and stained with 10% Giemsa staining solution. The surviving fraction was determined by dividing the number of the surviving colonies in the drug-treated cells by the number of colonies in the non-treated control groups.
# [1] = tested on: GRP78 Overexpression cells; assay: % Survival (Colony Assay), GRP78 overexpression; assay type: cell-based; details: for % Survival (Colony Assay): GRP78 Overexpression; for effect of GRP78 overexpression on sensitivity to the drug: GRP78 overexpression versus control
# Experimental: as §3, §4
# caspase-7 = assay: In vitro caspase-7 activation assay, cell-free extracts with cytochrome c and dATP; assay type: biochemical, Chinese hamster
# Experimental: FIG. 5, Panel C depicts cytoplasmic extracts prepared from CHO and C.1 cells and incubated with (+) or without (−) 10 μM cytochrome c and the various amounts of dATP (mM) as indicated.
# Among the executor caspases, caspase-7 has been reported to be associated with the ER. Upon induction of apoptosis, procaspase-7 (35 kDa) is first converted into a 32-kDa intermediate, which is further processed into active 20- and 11-kDa subunits. […] Upon longer exposure of the autoradiogram, the active 20- and 11-kDa forms were evident in the etoposide-treated cells. When GRP78 was overexpressed, a low level of caspase-7 activation was detected in both the non-treated and etoposide-treated cells. […] In addition, upon addition of cytochrome c, caspase-7 activation was higher in CHO cells than C.1 cells, as evidenced by the increase in the active 20- and 11-kDa forms in the CHO samples compared with the C.1 samples.
# The cells were suspended in 5 volumes of a hypotonic buffer (5 mM Tris-HCl, pH 7.4, 5 mM KCl, 1.5 mM MgCl2, 0.1 mM EGTA, pH 8.0, and 1 mM dithiothreitol) in the presence of 2 μg/ml leupeptin, pepstatin, and aprotinin protease inhibitors. After incubation on ice for 20 min, sucrose was added to a final concentration of 250 mM, and the cells were disrupted by douncing eight times in a 1-ml Wheaton Dounce homogenizer. The homogenate was centrifuged twice at […] for 10 min. […]
# [2] = target: T1, glucose regulated protein 78 (GRP78), wild-type, as present in CHO cells (endogenous) and C.1 cells … (hamster, UniProt G3I8R9 19-654); assay: co-immunoprecipitation from CHO and C.1 whole cell extracts, Western blot
# T1 construct: Protein in cell lysates used for co-immunoprecipitation, not purified; also called BiP; wild-type GRP78
# T1 sequence (G3I8R9 19-654 limits assumed): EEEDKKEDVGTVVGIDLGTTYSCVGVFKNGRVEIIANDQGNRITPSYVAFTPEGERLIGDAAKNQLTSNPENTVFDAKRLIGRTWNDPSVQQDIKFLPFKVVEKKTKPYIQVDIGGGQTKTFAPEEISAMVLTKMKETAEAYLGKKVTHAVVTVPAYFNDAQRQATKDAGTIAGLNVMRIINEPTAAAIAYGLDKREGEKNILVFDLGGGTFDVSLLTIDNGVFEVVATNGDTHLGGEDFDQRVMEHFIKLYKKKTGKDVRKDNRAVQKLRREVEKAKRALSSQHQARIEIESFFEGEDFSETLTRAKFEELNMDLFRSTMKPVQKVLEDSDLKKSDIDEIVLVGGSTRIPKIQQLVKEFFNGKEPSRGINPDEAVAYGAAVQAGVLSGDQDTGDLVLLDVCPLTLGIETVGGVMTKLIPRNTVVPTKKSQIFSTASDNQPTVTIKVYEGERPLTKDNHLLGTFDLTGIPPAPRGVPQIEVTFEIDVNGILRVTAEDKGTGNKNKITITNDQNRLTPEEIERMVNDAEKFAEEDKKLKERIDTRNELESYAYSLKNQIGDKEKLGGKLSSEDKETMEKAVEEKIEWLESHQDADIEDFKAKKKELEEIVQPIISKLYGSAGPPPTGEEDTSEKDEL
# Experimental: Co-immunoprecipitation Assays—2×10⁶ cells were lysed in 400 μl of extraction buffer (50 mM Tris-HCl, pH 7.5, 150 mM NaCl, 0.5% Nonidet P-40, and 0.5% deoxycholate, with protease inhibitor tablet (Roche Molecular Biochemicals)) and frozen and thawed three times. 500 μg of total protein extract from each sample was pretreated with 50 μl of protein A-Sepharose beads (Sigma) for 1 h at 4° C. prior to incubation with 5 μg of either anti-caspase-7 mouse monoclonal antibody or anticaspase-3 antibodies for 2 h. Following the incubation period, 50 μl of protein A-Sepharose beads was added, and the mixtures were rotated at 4° C. overnight. The beads were then washed five times with the extraction buffer. The immunoprecipitate was released from the washed beads by the addition of 30 μl of 1×SDS-PAGE sample loading buffer (50 mM Tris-HCl, pH 6.8, 100 mM dithiothreitol, 2% SDS, 0.1% bromphenol blue, 10% glycerol), followed by heating at 100° C. for 10 min. The supernatant obtained after centrifugation was resolved by SDS-PAGE and subjected to Western blot analysis to detect the co-immunoprecipitated proteins.
molecule,measurement,setting,value
C/C=C(/C)C(=O)O[C@H]1C(C)=C2[C@H]([C@@H]1OC(=O)CCCCCCC)[C@@](C)(OC(C)=O)C[C@H](OC(=O)CCC)[C@@]1(O)[C@H]2OC(=O)[C@@]1(C)O [thapsigargin],cell cycle distribution,T24/83 cells,a higher percentage of G1 cells and a lower percentage in S phase
same,cell cycle distribution,CHO cells,more cells in G1 and a dramatic reduction in S phase cells
N.N.[Cl][Pt][Cl] [Cisplatin],% Survival (Colony Assay),Control cells; cisplatin 3.3 μM,43%
same,% Survival (Colony Assay),Control cells; cisplatin 6.6 μM,3.7%
same,% Survival (Colony Assay),Control cells; cisplatin 9.9 μM,0%
same,% Survival (Colony Assay),Control cells; cisplatin 13.0 μM,0%
same,% Survival (Colony Assay),[1]; cisplatin 3.3 μM,60%
same,% Survival (Colony Assay),[1]; cisplatin 6.6 μM,50%
same,% Survival (Colony Assay),[1]; cisplatin 9.9 μM,27%
same,% Survival (Colony Assay),[1]; cisplatin 13.0 μM,16%
same,effect of GRP78 overexpression on sensitivity to the drug,[1],confers resistance
tunicamycin,cell cycle distribution,T24/83 cells,a higher percentage of G1 cells and a lower percentage in S phase
same,cell cycle distribution,CHO cells,more cells in G1 and a dramatic reduction in S phase cells
COc1cccc2c1C(=O)c1c(O)c3c(c(O)c1C2=O)C[C@@](O)(C(=O)CO)C[C@@H]3O[C@H]1C[C@H](N)[C@H](O)[C@H](C)O1 [Doxorubicin],% Survival (Colony Assay),Control cells; doxorubicin 0.2 μg/ml,80%
same,% Survival (Colony Assay),Control cells; doxorubicin 0.4 μg/ml,42%
same,% Survival (Colony Assay),Control cells; doxorubicin 0.6 μg/ml,2%
same,% Survival (Colony Assay),Control cells; doxorubicin 0.8 μg/ml,0%
same,% Survival (Colony Assay),Control cells; doxorubicin 1.0 μg/ml,0%
same,% Survival (Colony Assay),[1]; doxorubicin 0.2 μg/ml,95%
same,% Survival (Colony Assay),[1]; doxorubicin 0.4 μg/ml,84%
same,% Survival (Colony Assay),[1]; doxorubicin 0.6 μg/ml,68%
same,% Survival (Colony Assay),[1]; doxorubicin 0.8 μg/ml,48%
same,% Survival (Colony Assay),[1]; doxorubicin 1.0 μg/ml,32%
same,effect of GRP78 overexpression on sensitivity to the drug,[1],confers resistance
Nc1ncnc2c1ncn2[C@H]1C[C@H](O)[C@@H](COP(=O)(O)OP(=O)(O)OP(=O)(O)O)O1 [dATP],caspase-7 forms in CHO versus C.1 extracts,caspase-7; 1 mM dATP with cytochrome c,equivalent amounts of the 32- and 20-kDa forms
same,effect on GRP78-mediated suppression of caspase-7 activation,caspase-7; C.1 extracts in the presence of both cytochrome c and dATP,suppressive effect of the C.1 samples was reversed
CC[C@@]1(O)C(=O)OCc2c1cc1n(c2=O)Cc2cc3ccccc3nc2-1 [Camptothecin],% Survival (Colony Assay),Control cells; camptothecin 5 ng/ml,68%
same,% Survival (Colony Assay),Control cells; camptothecin 20 ng/ml,0.7%
same,% Survival (Colony Assay),Control cells; camptothecin 60 ng/ml,0%
same,% Survival (Colony Assay),[1]; camptothecin 5 ng/ml,82%
same,% Survival (Colony Assay),[1]; camptothecin 20 ng/ml,22%
same,% Survival (Colony Assay),[1]; camptothecin 60 ng/ml,2%
same,effect of GRP78 overexpression on sensitivity to the drug,[1],confers resistance
B1,binding result,[2],no binding
